Data published in patent US9867827B1, “Methods and formulations for topical treatment of psoriasis” (Florida A&M University, priority 2015, dated 2018).
Entries after “also recorded” stand apart in the source; their conditions may differ.

Tests used:
[1] = tested on: TNFα; assay: Western blot analysis of skin samples, TNFα; type: in vivo, C57BL/6 mice; details: compared to the TOPGRAF group, p<0.05
Procedure: The animals were then treated by applying cetylpyridinum chloride (CPC)-urea gel containing blank formulation as negative control, pemetrexed formulation, siTNFα formulation, pemetrexed-siTNFα combination formulation, or a known tacrolimus cream (TOPGRAF) as a positive control.
For western blot analysis, skin samples were minced in lysis cocktail composed of RIPA lysis buffer, protease inhibitor (PI) and phenylmethylsulfonyl fluoride (PMSF). BCA Protein Assay Reagent Kit was used to estimate the protein concentration per the manufacturer's protocol. 50 μg of the extracted protein for each sample was loaded into a gel and subjected to SDS-polyacrylamide electrophoresis (SDS-PAGE). The blots were incubated with primary antibodies for TNFα, NFkB, IL23, IL17, and β-actin and subsequently detected with Horseradish peroxidase-conjugated secondary antibodies using a S[…] PICO Chemiluminescent Substrate (Pierce, Rockford, Ill., USA) and BIORAD CHEMIDOC XRS+ imaging system (Hercules, Calif., USA).

[2] = tested on: NFkB; assay: Western blot analysis of skin samples, NFkB; type: in vivo, C57BL/6 mice; details: compared to the TOPGRAF group, p<0.05
Procedure: (§1) At the end of the study, skin samples were harvested and analyzed for inflammatory proteins by immunohistochemistry and western blot analyses.
(§2) For western blot analysis, skin samples were minced in lysis cocktail composed of RIPA lysis buffer, protease inhibitor (PI) and phenylmethylsulfonyl fluoride (PMSF). BCA Protein Assay Reagent Kit was used to estimate the protein concentration per the manufacturer's protocol. 50 μg of the extracted protein for each sample was loaded into a gel and subjected to SDS-polyacrylamide electrophoresis (SDS-PAGE). The blots were incubated with primary antibodies for TNFα, NFkB, IL23, IL17, and β-actin and subsequently detected with Horseradish peroxidase-conjugated secondary antibodies using a SUPERSIGNAL WEST PICO Chemiluminescent Substrate (Pierce, Rockford, Ill., USA) and BIORAD CHEMIDOC XRS+ imaging system (Hercules, Calif., USA).

[3] = tested on: IL23; assay: Western blot analysis of skin samples, IL23; type: in vivo, C57BL/6 mice; details: compared to the TOPGRAF group, p<0.05
Procedure: as §1, §2

[4] = tested on: IL17; assay: Western blot analysis of skin samples, IL17; type: in vivo, C57BL/6 mice; details: compared to the TOPGRAF group, p<0.05
Procedure: as §1, §2

[5] = tested on: IMQ-induced psoriatic-like plaques; details: after five treatments
Procedure: (§3) Briefly, IMQ cream was applied topically to the shaven dorsal regions of C57BL/6 mice (4 mg/day/animal) to form psoriatic-like plaques. […] The CPC-urea gels containing the foregoing formulations were applied to the inflamed dorsal regions of the animals for five (5) consecutive days.
A clinical scoring method for the PASI was used daily to score the severity of the inflammation induced on the dorsal regions of the mice, based on the extent of erythema, scaling, and epidermal thickening. The PASI score was assigned daily after initiating treatment on a scale of 0 to 4, where 0 indicated no inflammation, 1 indicated slight inflammation, 2 indicated moderate inflammation, 3 indicated marked inflammation, and 4 indicated very severe inflammation.

[6] = tested on: IMQ-induced psoriatic-like plaques; details: after five treatments, topical
Procedure: as §3
The TEWL was estimated using DELFIN VAPOMETER (DELFIN Technologies Ltd, Finland) as a measure of the extent of skin damage and healing with each day of treatment. The device was placed gently on the dorsal region of the mice each day of treatment and the value corresponding to water loss was recorded.

Nc1nc2[nH]cc(CCc3ccc(C(=O)N[C@@H](CCC(=O)O)C(=O)O)cc3)c2c(=O)[nH]1 [pemetrexed]
expression of TNFα (western blot) [1]: significant reduction | expression of NFKB (western blot) [2]: significant reduction | expression of IL23 (western blot) [3]: significant reduction; also recorded: decreased expressions | expression of IL17 (western blot) [4]: significant reduction; also recorded: decreased expressions | PASI score compared to tacrolimus cream (TOPGRAF) ([5]; topical): better PASI score; also recorded: superior | erythema and scaling compared to other groups ([5]; topical): significant reduction in erythema and scaling | PASI score ([5]; topical CPC-urea gel, scale of 0 to 4): ~0 | psoriatic plaque ([5]; topical, b57 compared to TOPGRAF): reduction in psoriatic plaque | TEWL compared to tacrolimus cream (TOPGRAF) [6]: better TEWL
